Assay results taken from the supplement of paper PMC10307832.

Assays:
Assay in all cases: relative viability (nuclei count vs DMSO), 5 days (fraction); higher = more cells survive
AZD8055 + OSI-027 = compound: COc1ccc(-c2ccc3c(N4CCOC[C@@H]4C)nc(N4CCOC[C@@H]4C)nc3n2)cc1CO [AZD8055] + COc1cccc2cc(-c3nc([C@H]4CC[C@H](C(=O)O)CC4)n4ncnc(N)c34)[nH]c12 [OSI-027] (partner 0.5 µM)
How it was run: (§1)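 Each reported value is a median over duplicate plates. It expresses relative viability: treated-well nuclei count divided by vehicle-well nuclei count. Lung cancer cell lines in 1536-well plates were dosed by pin tool a day after seeding, alone with one drug or with a fixed anchor-drug dose plus five library-drug doses (not always all listed) in √10 steps, and nuclei were counted after 5 days.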

AZD8055 + Lapatinib = compound: COc1ccc(-c2ccc3c(N4CCOC[C@@H]4C)nc(N4CCOC[C@@H]4C)nc3n2)cc1CO [AZD8055] + CS(=O)(=O)CCNCc1ccc(-c2ccc3ncnc(Nc4ccc(OCc5cccc(F)c5)c(Cl)c4)c3c2)o1 [Lapatinib] (partner 2 µM)
How it was run: as §1

AZD8055 + Linsitinib = compound: COc1ccc(-c2ccc3c(N4CCOC[C@@H]4C)nc(N4CCOC[C@@H]4C)nc3n2)cc1CO [AZD8055] + C[C@]1(O)C[C@@H](c2nc(-c3ccc4ccc(-c5ccccc5)nc4c3)c3c(N)nccn32)C1 [Linsitinib] (partner 1 µM)
How it was run: as §1

AZD8055 + Alpelisib = compound: COc1ccc(-c2ccc3c(N4CCOC[C@@H]4C)nc(N4CCOC[C@@H]4C)nc3n2)cc1CO [AZD8055] + Cc1nc(NC(=O)N2CCC[C@H]2C(N)=O)sc1-c1ccnc(C(C)(C)C(F)(F)F)c1 [Alpelisib] (partner 2 µM)
How it was run: as §1

Cell Line	relative viability (AZD8055 + OSI-027; first compound 0.01 µM)	relative viability (AZD8055 + OSI-027; first compound 0.03162 µM)	relative viability (AZD8055 + OSI-027; first compound 0.1 µM)	relative viability (AZD8055 + OSI-027; first compound 0.3162 µM)	relative viability (AZD8055 + OSI-027; first compound 1 µM)	relative viability (AZD8055 + Lapatinib; first compound 0.01 µM)	relative viability (AZD8055 + Lapatinib; first compound 0.03162 µM)	relative viability (AZD8055 + Lapatinib; first compound 0.1 µM)	relative viability (AZD8055 + Lapatinib; first compound 0.3162 µM)	relative viability (AZD8055 + Lapatinib; first compound 1 µM)	relative viability (AZD8055 + Linsitinib; first compound 0.01 µM)	relative viability (AZD8055 + Linsitinib; first compound 0.03162 µM)	relative viability (AZD8055 + Linsitinib; first compound 0.1 µM)	relative viability (AZD8055 + Linsitinib; first compound 0.3162 µM)	relative viability (AZD8055 + Linsitinib; first compound 1 µM)	relative viability (AZD8055 + Alpelisib; first compound 0.01 µM)	relative viability (AZD8055 + Alpelisib; first compound 0.03162 µM)	relative viability (AZD8055 + Alpelisib; first compound 0.1 µM)	relative viability (AZD8055 + Alpelisib; first compound 0.3162 µM)	relative viability (AZD8055 + Alpelisib; first compound 1 µM)
NCI-H2347	0.408	0.387	0.356	0.346	0.248	0.89	0.825	0.823	0.498	0.408	0.875	0.805	0.746	0.51	0.436	1.19	0.934	0.674	0.467	0.413
NCI-H2405	0.664	0.697	0.56	0.43	0.385	1.03	0.955	0.858	0.395	0.292	0.802	0.621	0.477	0.333	0.331	0.757	0.655	0.442	0.293	0.291
NCI-H3122	1.09	0.846	0.854	0.323	0.236	1.09	1.14	1.04	0.79	0.589	0.995	0.823	0.547	0.384	0.299	0.737	0.541	0.34	0.309	0.251
PC-3 [JPC-3]	0.84	0.742	0.756	0.768	0.566	0.392	0.393	0.333	0.322	0.302	0.992	0.972	0.882	0.673	0.461	1.17	1.06	0.972	0.555	0.47
PC-14	1.2	0.849	0.497	0.283	0.109	0.315	0.204	0.244	0.16	0.148	1.03	0.944	0.669	0.526	0.211	0.977	0.913	0.795	0.316	0.155
RERF-LC-KJ	0.587	0.671	0.522	0.387	0.362	0.895	0.726	0.637	0.437	0.345	0.86	0.739	0.597	0.44	0.352	0.77	0.576	0.552	0.4	0.442
SK-LU-1	0.354	0.372	0.337	0.289	0.242	0.866	0.761	0.487	0.376	0.332	0.941	0.798	0.877	0.491	0.321	1.03	0.643	0.384	0.687	0.342
SK-MES-1	0.653	0.629	0.557	0.338	0.22	0.444	0.387	0.371	0.274	0.318	1.06	0.932	0.743	0.447	0.313	0.856	0.64	0.542	0.303	0.269
SW 1573	0.696	0.528	0.47	0.221	0.18	1.25	0.829	1.04	0.519	0.27	0.725	0.584	0.484	0.267	0.153	0.707	0.51	0.55	0.301	0.211
UMC-11	0.494	0.452	0.367	0.302	0.284	0.832	0.573	0.578	0.276	0.282	0.995	0.884	0.539	0.251	0.266	1.06	0.737	0.549	0.232	0.22
